Patent US20250082687A1, “COMPOSITION FOR IMPROVING MEMORY OR COGNITIVE ABILITY, OR PREVENTING OR TREATING BRAIN NEUROLOGICAL DISEASE, COMPRISING PORCINE BRAIN ENZYME HYDROLYSATE” (UNIMED PHARMACEUTICALS INC., priority 2022, published 2025)
Where a SMILES comes first, the peptide text is derived from it.

Experiments:
[1] = Cytotoxicity of peptides (MTT cell viability); type: cell-based, human; settings: human, SH-SY5Y cells, all tested concentrations (0.4˜40 ug/ml)
Experimental: (§1) SH-SY5Y cells, a human neuronal cell line, were obtained from the Korean Cell Line Bank (Cat No. 22266) and were cultured in Roswell Park Memorial Institute (RPMI) 1640 Medium (RPMI 1640, Cytiba) medium containing 10% fetal bovine serum (FBS, Cytiba) and 100 IU/ml penicillin and 100 μg/ml streptomycin in a 5% CO2, 37° C. incubator.
(§2) The human neuronal cell line SH-SY5Y was cultured and various concentrations of porcine brain enzyme hydrolysate-derived peptides were added to determine cell viability by MTT (methylthiazol tetrazolium bromide, Sigma Aldrich). Cells were seeded in appropriate amounts (1×10^5/well) in each well of a 24 well plate (BD, Falcon), treated with each concentration, and cell viability was determined after 48 hours of incubation in a 37° C. incubator. After 4 hours of reaction with MTT solution, the insoluble formazan crystals were dissolved by adding 400 μl of DMSO and the absorbance was measured with an ELISA reader (TECAN, Infinite M200 pro) at a wavelength of 570 nm.

[2] = system: SH-SY5Y cells; test: Cytotoxicity of peptides (MTT cell viability); type: cell-based, human; settings: 40 ug/mL (w/v), 48 hours
Experimental: as §1, §2

Row | SMILES | viability at 48 h [1] [%] | cell viability [2]
1 | CC[C@H](C)[C@H](NC(=O)[C@H](CO)NC(=O)[C@@H]1CCCN1)C(=O)N[C@@H](CO)C(=O)O [brPEP-1, PSIS] (H-PSIS-OH) | > 90 | 93.05%±2.23%
2 | C[C@H](NC(=O)[C@@H]1CCCN1C(=O)CN)C(=O)NCC(=O)N1CCC[C@H]1C(=O)N[C@@H](CCC(N)=O)C(=O)NCC(=O)N1CCC[C@H]1C(=O)N[C@@H](CCCNC(=N)N)C(=O)O [brPEP-2, GPAGPQGPR] | > 90 | 108.47%±5.20%
